Assay [1] has as its system human colorectal cancer cell line HCT-116. The assay can be described thus: Cell viability by MTT assay, HCT-116. The class given is cell-based. An excerpt:
(§1) The cell line HCT-116 is an adult colorectal cancer cell, and its cells are TGF-β1 and TGF-β2, which are the targeted cells commonly used in preclinical colorectal cancer; the cell line DLD-1 is a […] human colorectal cancer. The cells, which are cancer cells that have invaded the lymph nodes in the late stage, have rapid metastatic growth and are also the targeted cells commonly used in preclinical studies of colorectal cancer; the cell line MCF-7 is an adult […] mastocarcinoma cell with Tx-4 oncogene, which is a targeted cell commonly used in preclinical studies of mastocarcinoma. The cell line A549 is an adult […] lung cancer cell, and its cell characteristic is the ability to synthesize lecithin. Pre-clinical studies of targeted cells are commonly used in lung cancer; cell line EG7 is a lymphoma cell, and its cells with antigen OVA are the targeted cells commonly used in cancer immunotherapy for preclinical studies; cell line L929 is fibroblast, which is the specified cell for preclinical studies of the cytotoxicity standard assay.
(§2) Cell Viability by MTT Assay […]
(§3) 4) The culture solution is extracted, and DMSO is added to dissolve the purple crystals, and the light absorption value is measured at a wavelength of 570 nm.
(§4) 5) The cell survival rate and IC50 of the drug are calculated by comparing the values of the control group with the light absorption values of different groups.

Assay [2] relates to human colorectal cancer cell (HT-29) tumors. Kind of assay: Animal assay: HT-29 colorectal tumor growth in nu/nu mouse. The format is in vivo. The settings on record: 10 mg/kg tail vein, 2 times per week, HT-29 in nu/nu mouse. As to the method: The mouse is used as a model organism to observe the inhibition growth of TG1 on colorectal cancer tumors.
1) The human colorectal cancer cell (HT-29) is implanted in the back of mouse (nu/nu mouse), and the tumors are grown to about 250 mm^3 for grouping.
2) The mice are divided into 3 groups (untreated group, treatment group TG1 and clinical anticancer drug Irinotecan of treatment group), 8 mice in each group.
3) The treatment group TG1 and Irinotecan are administered at a concentration of 10 mg/kg, and the drug is administered in the tail vein at a frequency of 2 times per week.
4) Observe the tumor volume growth, the tumor volume calculation formula is: length×width×width×0.5.

Assay [3] has as its system fibroblast cell line L929. The assay can be described thus: Cell viability by MTT assay, L929. The settings on record: Mus musculus, L929 fibroblast cells, 24 hours with drug. The format is cell-based.
Source text: as §1, §2, §3, §4

In assay [4] the test system is human breast cancer cell line MCF-7. The assay can be described thus: Cell viability by MTT assay, MCF-7. The class given is cell-based. The note with it: MCF7, MCF-7 breast cancer cells, 24 hours with drug.
Source text: as §1, §2, §3, §4

The test system of assay [5] is lymphoma cell line E.G7. Kind of assay: Cell viability by MTT assay, E.G7. The class given is cell-based. The note with it: E.G7 lymphoma cells, 24 hours with drug.
Source text: as §1, §2, §3, §4

Assay [6] relates to human lung cancer cell line A549. Kind of assay: Cell viability by MTT assay, A549. The format is cell-based. The note with it: A549 lung cancer cells, 24 hours with drug.
Source text: as §1, §2, §3, §4

Assay [7] deals with human colorectal cancer cell line DLD-1. The assay can be described thus: Cell viability by MTT assay, DLD-1. The class given is cell-based. The note with it: DLD-1 colorectal cancer cells, 24 hours with drug.
Source text: as §1, §2, §3, §4

Assay [8] concerns human colorectal cancer (Caco2, SW480, HCT116). The settings on record: Saunier et al. 2017; cited from earlier work.

Here are results for 2 molecules from patent US10849861B2, “Pharmaceutical compound for treating colorectal cancer” (Everest Pharm. Industrial Co., LTD., priority 2018, dated 2020).

Molecules are shown by their SMILES.

Consider `Oc1ccc(/C=C/c2cc(O)cc(O)c2O)cc1` [TG1, 2,3,5, 4′-tetrahydroxy-trans-stilbene], for which the IC50 in assay [1] (Homo sapiens, HCT-116 colorectal cancer cells, MTT assay, 24 hours with drug) came out at 31 nM; in assay [3], 255 µM; in assay [4] it was 190 µM; in assay [5], 180 µM; in assay [6] it was 63 µM; in assay [7], 56 nM. Also, the “ability to poison colorectal cancer cells relative to other cells” value in assay [1] (colorectal cancer cells versus other cells, from IC50 values of Table 1) is recorded as 1000-6000 times. Moreover, the mean tumor volume in assay [2] (10th day) is given as 291 mm^3. The average tumor volume in assay [2] (15th day) worked out at 300 mm^3; in assay [2] (20th day) it was 461 mm^3.

As to `Oc1ccc(C=Cc2cc(O)cc(O)c2)cc1` [resveratrol], the “ability to inhibit cancer cells” value in assay [8] was “no any ability to inhibit cancer cells”.
